The record followed here is patent US20260021120A1, “METHOD FOR TREATING INFLAMMATORY SKIN DISEASE USING 6-DIAZO-5-OXO-L-NORLEUCINE” (Dermato Bio Inc., priority 2019, published 2026).

“Also recorded” adds a separate entry of the source.

The test system of assay [1] is NFκB. The experiment in a line: TNF-α-induced NFκB activation (luciferase activity) in fibroblasts (NIH3T3/NFκB-luc cells). The format is cell-based. Particulars: 25 ng/ml TNF-α co-treated 8 hours, 100 μM DON, 5 μM Bay11-7082, vs TNF-α only-treated group. The procedure: (§1) This example was intended to indirectly confirm the inhibition of chemokine secretion and histone acetylation by confirming the activity of NFκB in skin cells with a dermatitis lesion, and confirming whether the accelerated NFκB activity was inhibited.
(§2) NIH3T3/NFκB-luc cells, which is a cell line capable of confirming the activity of an NFκB transcription factor through luciferase activity were treated with 25 ng/ml of TNF-α to activate an NFκB signal, and as a positive control, 5 μM of a TNF-α inhibitor, Bay11-7082 (Bay), causing an NF-κB signaling inhibitory action was used. NIH3T3/NFκB-luc cells were dispensed at […] in a 96-well plate, and stabilized in an incubator for 24 hours. To confirm the DON efficacy on NFκB, TNF-α and 100 μM DON were co-treated for 8 hours and then lysed, thereby obtaining a cell enzyme solution, and then the cell enzyme solution was reacted with luciferin, and luciferase activity was measured using a luminometer (FIGS. 3 and 4). The difference in the number of cells between treatment groups was corrected with the resulting values of luciferase activity using protein quantification.

Assay [2] concerns NFκB. The experiment in a line: TNF-α-induced NFκB activation (luciferase activity) in keratinocytes. Particulars: 25 ng/ml TNF-α co-treated 8 hours, 100 μM DON, 5 μM Bay11-7082, vs TNF-α only-treated group. The format is cell-based. On the procedure: as §1, §2
In another assay the test system is TPA-induced inflammation. The experiment in a line: TPA-induced inflammation inhibiting experiment (mouse ear). The format is in vivo, C57BL/6 female mice. Conditions: for visual skin condition of the ear area: after 5 days of application, compared to a negative control (FIG. 6); for number of mast cells / penetration of mast cells into lesion: toluidine blue staining, 200× image, DEX 3 mg, CRI 0.6 mg, DON 0.1 mg on ears, vs TPA positive control. On the procedure:
For an experiment of inducing and inhibiting inflammation using 12-O-tetradecanoylphorbol-13-acetate (TPA, Sigma), 14 week-old C57BL/6 female mice were purchased from NARA Biotech (Korea) and used. The purchased mice were acclimated for 7 days, and healthy animals were selected and tested. During the experimental period, the mice were raised while maintaining the environment at a temperature of 21 to 25° C., a relative humidity of 45 to 65% and a lighting time of 12 hours, and freely fed feed and drinking water.
First, the acclimated mice with similar characteristics such as a body weight and size were divided into five experimental groups of 3, and separately raised to confirm an anti-inflammation level. Inflammation was induced by first applying 1.0 ug of TPA to each of both ears of a mouse, and after 1 hour, a therapeutic material was applied, which was continued for 5 days. A mouse to which only acetone (Merck), which is a TPA solvent, was applied was set as a negative control (Vehicle), a mouse to which 1.0 ug of TPA dissolved in acetone was applied was set as a positive control and evaluated, and after TPA was applied, mice to which each of 3 mg of dexamethasone (DEX, Sigma), 0.6 mg of crisaborole (CRI, ChemScene) and 0.1 mg of 6-diazo-5-oxo-L-norleucine (DON, Sigma) was applied were set as experimental groups. After applying each material for 5 days by the above-described method, the weight, ear thickness and ear weight of each mouse were measured, and ear tissue was collected and histologically analyzed by hematoxylin & eosin (H&E) staining and toluidine blue staining.
FIG. 8 is a graph obtained by scoring visually evaluated ear lesions, divided into erythema, scaling and a thickness, and in the graph, the severity of symptoms was rated on a 5-point scale (0=none; 1=slight; 2=moderate; 3=marked; and 4=very marked).
Afterward, to confirm the anti-inflammatory effect of DON, the mouse's ear thickness and ear weight were measured and quantified (FIGS. 9A and 9B), and, based on the histological analysis result obtained by toluidine blue staining capable of confirming mast cells, the number of mast cells was measured by comparing three tissue samples per group using a 200× image (FIG. 9C). […] Therefore, it was confirmed that DON can alleviate pruritus symptoms by inhibiting the histamine secretion not only from epithelial cells but also from mast cells, and can also prevent severe dermatitis caused by secondary infection.

A further assay relates to IMQ-induced psoriasis. The experiment in a line: IMQ-induced psoriasis inhibiting experiment (mouse back). The class given is in vivo, female C57/BL6 mice. Particulars: 0.05% DON, 100 μl on back. The procedure: For a psoriasis inhibition experiment using imiquimod (IMQ, Tokyo Chemical Industry, 10747-100 mg), as an experimental animal, female C57/BL6 mice (n=5) were used. First, to induce psoriasis, sensitization was preceded by evenly applying 4 mg IMQ to the completely shaved back of each of the mice in all groups except a negative control at a volume of 100 μl. For the negative control, the same amount of a solvent without IMQ was applied. Psoriasis was induced by applying IMQ a total of five times at 24-hour intervals for 5 days, and for treatment groups, the same site was treated (applied) with 0.05% dexamethasone (DEX) ([…], 100 μl) or 0.05% DON (0.5 mg/ml, 100 μl) dissolved in ethanol one hour after IMQ treatment.
The severity of scaling (FIG. 20) visually evaluated at a lesion site was classified and evaluated by rating, and the severity of the symptom was rated on a 5-point scale (0=none; 1=slight; 2=moderate; 3=marked; and 4=very marked), and plotted on a graph.

Assay [3] concerns oxazolone-induced atopic dermatitis. The experiment in a line: Oxazolone-induced atopic dermatitis inhibiting experiment (mouse ear). The format is in vivo, female BALB/c mice. The procedure:
Using five 8-week-old female BALB/c mice per group, an effect of inhibiting oxazolone-induced atopic dermatitis was tested. In the experiment, dermatitis induced on the car of each mouse was treated with a therapeutic candidate, and it was attempted to confirm an effect depending on an administration route of a therapeutic agent through percutaneous application or subcutaneous injection. First, to induce atopic dermatitis in all groups excluding the negative control, 0.35 mg of 4-ethoxymethylene-2-phenyl-2-oxazolin-5-one (oxazolone, OXA) was mixed with 30 μl of acetone, and sensitization was preceded on each of the both ears with the 1% mixture. The same amount of a solvent without OXA was applied for the negative control (vehicle). From 7 days after the initial application of OXA, OXA (0.5%) was additionally applied every two days to induce dermatitis. For treatment groups, dexamethasone (DEX), tacrolimus (TAC), cyclosporine (CYCL), crisaborole (CRI) and DON were used. For percutaneous application, each time OXA was applied, after 1 hour, each of the therapeutic candidates was treated on both ears, and in the administration test via subcutaneous injection, injection was performed 1 hour after OXA treatment, but intermittently performed every two days. As an excipient used in the subcutaneous injection, filtered distilled water was used, and the control was also administered the same amount of sterile water. Finally, on day 22 after the initial OXA application, the experiment was terminated, and the mice were sacrificed and autopsied, ear tissue was collected, and to confirm the morphological structure of the tissue, H&E staining was performed, and to count the number of the infiltrated mast cells, toluidine blue staining was performed.
FIGS. 14A and 14B were obtained by quantifying the total number of cells and the number of mast cells, which are infiltrated into the dermis, from the staining results. (a) The cell numbers were compared using the total number of infiltrated cells in 200 square micrometers (μm^2), and (b) the mast cells infiltrated into the same area were converted into percentage (%) with respect to the total cell number.

[4] abbreviates: ear lesion, DON 0.1 mg, 5 days (FIG. 8).

Take `Cc1ccc(S(=O)(=O)/C=C/C#N)cc1` [Bay11-7082, reference compound]: the “NFκB activity by TNF-α (luciferase activity)” value in the assay on NFκB [1] and with NFκB [2] was “decreased” each time.
Take `N#Cc1ccc(Oc2ccc3c(c2)COB3O)cc1` [CRI, crisaborole, reference compound]: the “visual skin condition of the ear area” value with TPA-induced inflammation is “showed erythema and scaling”. The “number of mast cells / penetration of mast cells into lesion” value in the assay on TPA-induced inflammation (after 5 days) is reported as “significantly decreased”.
Turning to `[N-]=[N+]=CC(=O)CC[C@H](N)C(=O)O` [DON, 6-diazo-5-oxo-L-norleucine], in the assay on TPA-induced inflammation (H&E, after 5 days, DON 0.1 mg on ears (FIG. 7)), the “thickened skin tissue of the epidermis and dermis (histological analysis)” value is “becomes thinner”. The “thickness of the epithelium” value is “significantly reduced” in the assay on TPA-induced inflammation (TPA-induced inflammation, inflammatory lesion treated with DON (FIG. 1)) and “significantly reduced” in assay [3] (oxazolone-induced inflammation, inflammatory lesion treated with DON (FIG. 2)). Besides, in the assay on TPA-induced inflammation, the “visual skin condition of the ear area” value was “showed erythema and scaling”. Moreover, in the assay on TPA-induced inflammation (setting [4]), the “degree of erythema (visual score, 5-point scale)” value is “significantly reduced”. For the same compound, the “degree of scaling (visual score, 5-point scale)” value in the assay on TPA-induced inflammation (setting [4]) is listed as “significantly reduced”. In addition, in the assay with TPA-induced inflammation (setting [4]), the “degree of thickness (visual score, 5-point scale)” value is “significantly reduced”. The “number of mast cells / penetration of mast cells into lesion” value with TPA-induced inflammation (after 5 days) is “significantly decreased; also recorded: weakened”; in assay [3] (toluidine blue staining, dermis of ear, day 22) it was “significantly reduces; also recorded: weakened”. Moreover, in the assay with IMQ-induced psoriasis (5 days (FIG. 21)), the “skin thickness at the lesion” value is “significantly reduced”. Further, in the assay with IMQ-induced psoriasis (5 days, vs IMQ positive control (FIG. 20)), the “severity of scaling (visual score, 5-point scale)” value is “significantly decreased”. Besides, the “weight (g) of ear tissue” value in assay [3] (0.1% (0.0272 mg), ear, percutaneous application (FIG. 12A)) was “significantly decreased”. In assay [3] (0.1% (0.0272 mg), ear, percutaneous application (FIG. 12B)), the “thickness (mm) of ear tissue” value is “significantly decreased”. Besides, the “visual symptoms of atopic dermatitis (tissue swelling, eczema, deformation of the ear tissue)” value in assay [3] (0.1% (0.0272 mg), ear, percutaneous application, vs OXA group (FIG. 11)) is “significant skin improvement”. Also, the “number of immune cells introduced into the dermis” value in assay [3] (histological analysis, total infiltrated cells in 200 μm^2) is reported as “significantly reduces; also recorded: small”. The “changes in the epithelium of skin” value in assay [3] (visual and histological analysis) is recorded as “significantly reduces”. Further, the “NFκB activity by TNF-α (luciferase activity)” value with NFκB [1] and in the assay on NFκB [2] was “reduced; also recorded: inhibited” in each case.
